The source of these data is ChEMBL document CHEMBL1201862, “PubChem BioAssay data set” (2004).

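Assay format: 96-well plates, 48-hour exposure. GI50: concentration for 50% inhibition of growth.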 Active and inactive are the calls of the source. Cut-off read from the data, not from the text of the source: active = GI50 up to about 1.1 µM and inactive = higher.

What all share (assay): NCI tumour cell line growth inhibition, 48 h
In assay [1] the test system is HOP-92.
In assay [2] the test system is BT-549.
Assay [3] concerns UACC-62.
Assay [4] deals with A498.
Assay [5] has as its system UO-31.
Assay [6] concerns SK-MEL-2.
Assay [7] relates to NCI-H226.
The subject of assay [8] is SNB-75.
For assay [9], the system named is SF-268.
The test system of assay [10] is COLO 205.
Assay [11] concerns K562.
In assay [12] the test system is IGROV-1.
Assay [13] deals with LOX IMVI.
Assay [14] deals with 786-0.
Assay [15] deals with SF-295.
The subject of assay [16] is HL-60.
Assay [17] concerns SW-620.
Assay [18] relates to T47D.
In assay [19] the test system is SK-MEL-5.
The subject of assay [20] is CCRF-CEM.

Take `CC(=O)NC1C(O)C(O)C(CO)OC1n1ncc(=O)[nH]c1=O` (stereo not given): the GI50 in assay [1], in assay [2], in assay [3], in assay [4], in [5] and in assay [6] was > 100 µM (inactive) each time. Moreover, the GI50 in assay [7], in [8], in assay [9], in [10], in assay [11] and in assay [12] was > 100 µM (inactive) each time. For the same compound, the GI50 in assay [13], in assay [14], in [15], in assay [16], in assay [17] and in assay [18] was > 100 µM (inactive) throughout. For the same compound, the GI50 in [19] and in assay [20] was > 100 µM (inactive) throughout.
For `O=C(NNC(=S)Nc1ccccc1)c1ccccc1Nc1ccccc1C(=O)NNC(=S)Nc1ccccc1`, the GI50 in [1] was 8.53 µM (inactive); in assay [2] it was 17.4 µM (inactive); in assay [3] it was 13.1 µM (inactive); in [4], 42.8 µM (inactive); in assay [5] it was 17.7 µM (inactive); in assay [6], 19.6 µM (inactive). Also, the GI50 in assay [7] was 24.5 µM (inactive); in [8], 22.4 µM (inactive); in assay [9], 17 µM (inactive); in assay [10], 22.1 µM (inactive); in assay [11] it was 74 µM (inactive); in assay [12], 8.24 µM (inactive). Further, the GI50 in [13] was 12.9 µM (inactive); in assay [14], 13.8 µM (inactive); in [15] it was 20.9 µM (inactive); in [16], 35.5 µM (inactive); in assay [17] it was 40.9 µM (inactive); in assay [18], 27.7 µM (inactive). For the same compound, the GI50 is 26.3 µM (inactive) in assay [19] and 76.4 µM (inactive) in [20].
On to `C=CCN1C(=O)C[C@H](Cc2ccccc2)NC(=O)C[C@H](Cc2ccccc2)N(CC=C)C(=O)C[C@H](Cc2ccccc2)NC(=O)C[C@@H]1Cc1ccccc1`, for which the GI50 in [1] is 4.48 µM (inactive); in [2], 95.5 µM (inactive); in assay [3], 6.34 µM (inactive); in assay [4], 7.01 µM (inactive); in [5], 7.03 µM (inactive); in [6] it was 6.73 µM (inactive). Besides, the GI50 in assay [7] was 14 µM (inactive); in [8] it was 3.92 µM (inactive); in assay [9], 6.12 µM (inactive); in assay [10], 2.3 µM (inactive); in assay [11], 3.45 µM (inactive); in assay [12], 20 µM (inactive). The GI50 is 3.99 µM (inactive) in assay [13]; 47.8 µM (inactive) in assay [14]; 23.6 µM (inactive) in assay [15]; 3.35 µM (inactive) in [16]; 62.7 µM (inactive) in assay [17]; 6.3 µM (inactive) in assay [18]. The GI50 was 20.7 µM (inactive) in assay [19] and 4.76 µM (inactive) in assay [20].
As for `Cc1ccc([N+](=O)[O-])cc1S(=O)(=O)Nc1ccc(C2=NN(S(=O)(=O)c3cc([N+](=O)[O-])ccc3C)C(c3ccccc3)C2)cc1` (stereo not given), the GI50 was 35.8 µM (inactive) in [1]; 21.8 µM (inactive) in assay [2]; 16 µM (inactive) in [3]; 16.5 µM (inactive) in assay [4]; 28.6 µM (inactive) in assay [5]; 22.6 µM (inactive) in [6]. For the same compound, the GI50 in [7] is 54.2 µM (inactive); in assay [8], 64.6 µM (inactive); in assay [9], 17.6 µM (inactive); in assay [10], 27 µM (inactive); in [11], 30.1 µM (inactive); in [12] it was 29.3 µM (inactive). Moreover, the GI50 was 34.3 µM (inactive) in [13]; 39.5 µM (inactive) in [14]; 21.7 µM (inactive) in assay [15]; 35.6 µM (inactive) in assay [16]; 50.5 µM (inactive) in assay [17]; 41.4 µM (inactive) in assay [18]. Further, the values for the GI50 in assay [19] and in assay [20] were 26.3 µM (inactive) and 36.1 µM (inactive), respectively.
For `Cc1cc(N(CC(C)Br)CC(C)Br)ccc1/N=N/c1ccccc1C(=O)O` (stereo not given), the GI50 in assay [1] was 2.24 µM (inactive); in [2], 11.3 µM (inactive); in [3], 1.52 µM (inactive); in assay [4] it was 1.67 µM (inactive); in assay [5] it was 5.86 µM (inactive); in assay [6], 2.93 µM (inactive). The GI50 in [7] was 4.52 µM (inactive); in assay [8] it was 2.43 µM (inactive); in assay [9], 7.73 µM (inactive); in assay [10], 5.47 µM (inactive); in assay [11], 1.03 µM (active); in [12] it was 11 µM (inactive). Further, the GI50 in [13] was 7.59 µM (inactive); in assay [14] it was 2.77 µM (inactive); in assay [15], 0.948 µM (active); in assay [16] it was 6.05 µM (inactive); in [17], 20 µM (inactive); in assay [18] it was 0.592 µM (active). Also, the GI50 was 3.19 µM (inactive) in [19] and 19.6 µM (inactive) in assay [20].
Take `CC1Cc2cc(O)ccc2C2[C@@H]1C1CC[C@H](O)[C@@]1(C)C[C@@H]2O[N+](=O)[O-]` (stereo not given in full): the GI50 in assay [1] is 13.1 µM (inactive); in assay [2], 10.9 µM (inactive); in [3], 5.46 µM (inactive); in [4], 31.8 µM (inactive); in [5], 13.7 µM (inactive); in assay [6], 5.46 µM (inactive). Moreover, the GI50 in assay [7] was 32.1 µM (inactive); in [8], 10.3 µM (inactive); in assay [9] it was 16.2 µM (inactive); in [10], 22.3 µM (inactive); in [11] it was 3.79 µM (inactive); in assay [12], 25.2 µM (inactive). In addition, the GI50 in assay [13] was 9.2 µM (inactive); in assay [14] it was 8.26 µM (inactive); in [15] it was 7.29 µM (inactive); in assay [16], 2.79 µM (inactive); in [17], 6.76 µM (inactive); in [18] it was 9.55 µM (inactive). Besides, the GI50 in [19] is 4.93 µM (inactive); in assay [20] it was 5.83 µM (inactive).
As for `COc1ccc(C(=O)c2cc(OC)c(OC)c(OC)c2)cc1`, the GI50 was 2.41 µM (inactive) in [1]; 0.923 µM (active) in [2]; 0.0501 µM (active) in [3]; 0.0713 µM (active) in assay [4]; 1 µM (active) in assay [5]; 0.342 µM (active) in assay [6]. Moreover, the GI50 in assay [7] is 1.11 µM (active); in assay [8] it was 0.0726 µM (active); in assay [9], 0.838 µM (active); in [10] it was 0.0706 µM (active); in assay [11] it was 0.0392 µM (active); in assay [12], 0.219 µM (active). In addition, the GI50 is 0.147 µM (active) in assay [13]; 0.169 µM (active) in assay [14]; 0.0399 µM (active) in assay [15]; 0.031 µM (active) in [16]; 0.0556 µM (active) in assay [17]; 27.5 µM (inactive) in [18]. Further, the GI50 in assay [19] is 0.0702 µM (active); in assay [20], 0.0879 µM (active).
